The results in this text go back to patent publication US20230150970A1, “AMINOPYRIMIDINE DERIVATIVES AND THEIR USE AS ARYL HYDROCARBON RECEPTOR MODULATORS” (DONG-A ST CO., LTD., priority 2020, published 2023).

Where only a bound is given, the exact number is not on record here.

This experiment deals with T1, AhR (Homo sapiens, UniProt P35869).
T1 sequence (P35869 11-848): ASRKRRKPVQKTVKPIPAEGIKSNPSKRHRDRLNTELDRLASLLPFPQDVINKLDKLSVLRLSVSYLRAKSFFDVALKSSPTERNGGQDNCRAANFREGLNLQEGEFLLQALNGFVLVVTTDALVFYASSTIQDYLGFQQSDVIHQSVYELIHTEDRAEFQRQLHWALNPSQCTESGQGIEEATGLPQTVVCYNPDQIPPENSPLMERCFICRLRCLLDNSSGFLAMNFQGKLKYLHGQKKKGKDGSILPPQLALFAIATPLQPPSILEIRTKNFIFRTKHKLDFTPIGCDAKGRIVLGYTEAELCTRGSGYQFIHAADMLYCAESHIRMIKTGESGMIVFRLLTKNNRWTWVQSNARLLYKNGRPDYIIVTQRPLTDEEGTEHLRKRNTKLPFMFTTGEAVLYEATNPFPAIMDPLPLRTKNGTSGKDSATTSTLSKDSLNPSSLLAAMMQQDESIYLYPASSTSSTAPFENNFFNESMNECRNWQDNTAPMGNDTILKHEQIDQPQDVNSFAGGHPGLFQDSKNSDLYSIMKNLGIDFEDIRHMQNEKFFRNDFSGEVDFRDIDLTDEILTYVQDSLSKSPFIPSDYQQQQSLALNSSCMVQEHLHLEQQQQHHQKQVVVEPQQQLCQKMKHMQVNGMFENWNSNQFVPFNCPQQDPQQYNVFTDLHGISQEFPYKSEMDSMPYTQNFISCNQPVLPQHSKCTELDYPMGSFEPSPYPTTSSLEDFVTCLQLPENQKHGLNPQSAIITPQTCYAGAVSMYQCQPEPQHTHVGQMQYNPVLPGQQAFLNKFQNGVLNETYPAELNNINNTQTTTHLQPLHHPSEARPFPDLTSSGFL
In words: In Vitro Assay 1: XRE-luciferase reporter assay, antagonism in human cell line (HepG2). The settings on record: Assay 1: AhR-Luc Human Antagonism (IC50, nM), unmarked values: kynurenine 200 μM, 6 hours.

Regarding `CS(=O)(=O)C1(CO)CCN(c2cc(-c3ccc(Cl)cc3)nc(-c3cccnc3)n2)CC1` [Example 337, (1-(6-(4-chlorophenyl)-2-(pyridin-3-yl)pyrimidin-4-yl)-4-(methylsulfonyl)piperidin-4-yl)methanol], the IC50 is under 10 nM.

Regarding `OC1CCCCN(c2cc(-c3ccc(Cl)cc3)nc(-c3cccnc3)n2)C1` (stereo not shown) [Example 338, 1-(6-(4-chlorophenyl)-2-(pyridin-3-yl)pyrimidin-4-yl)azepan-3-ol], the IC50 was 100 to 1000 nM.

As for `O[C@H]1CCN(c2cc(-c3ccc(C(F)(F)F)cc3)nc(-c3cccnc3)n2)C1` [Example 340, (S)-1-(2-(pyridin-3-yl)-6-(4-(trifluoromethyl)phenyl)pyrimidin-4-yl)pyrrolidin-3-ol], the IC50 is under 10 nM.

Regarding `CS(=O)(=O)N1CCN(c2cc(-c3ccc(C(F)(F)F)cc3)nc(-c3cccnc3)n2)CC1` [Example 341, 4-(4-(methylsulfonyl)piperazin-1-yl)-2-(pyridin-3-yl)-6-(4-(trifluoromethyl)phenyl)pyrimidine], the IC50 was over 1000 nM.

`O[C@H]1CCN(c2cc(-c3ccc(Cl)cc3)nc(-c3cnc(F)c(F)c3)n2)C1` [Example 342, (S)-1-(6-(4-chlorophenyl)-2-(5,6-difluoropyridin-3-yl)pyrimidin-4-yl)pyrrolidin-3-ol]: the IC50 was over 1000 nM.

Regarding `O[C@@H]1CN(c2cc(-c3ccc(C(F)(F)F)cc3)nc(-c3cccnc3)n2)C[C@@H]1O` [Example 343, (3S,4R)-1-(2-(pyridin-3-yl)-6-(4-(trifluoromethyl)phenyl)pyrimidin-4-yl)pyrrolidine-3,4-diol], the IC50 was over 1000 nM.

In turn, `O[C@H]1CCN(c2cc(-c3ccc(Cl)cc3)nc(-c3cncnc3)n2)C1` [Example 344, (S)-1-(6-(4-chlorophenyl)-[2,5′-bipyrimidin]-4-yl)pyrrolidin-3-ol] gave an IC50 of under 10 nM.

`O[C@H]1CCN(c2cc(-c3ccc(Cl)cc3)nc(-c3ccc(F)nc3)n2)C1` [Example 345, (S)-1-(6-(4-chlorophenyl)-2-(6-fluoropyridin-3-yl)pyrimidin-4-yl)pyrrolidin-3-ol]: the IC50 was 100 to 1000 nM.

For `O[C@H]1CCN(c2cc(-c3ccc(Cl)cc3)nc(-c3cccnc3F)n2)C1` [Example 346, (S)-1-(6-(4-chlorophenyl)-2-(2-fluoropyridin-3-yl)pyrimidin-4-yl)pyrrolidin-3-ol], the IC50 was 10 to 100 nM.

Regarding `O[C@H]1CCN(c2cc(-c3ccc(Cl)cc3)nc(-c3ccccn3)n2)C1` [Example 347, (S)-1-(6-(4-chlorophenyl)-2-(pyridin-2-yl)pyrimidin-4-yl)pyrrolidin-3-ol], the IC50 was over 1000 nM.

Take `Cn1cc(-c2nc(-c3ccc(Cl)cc3)cc(N3CCN(S(=O)(=O)CCO)CC3)n2)cn1` [Example 348, 2-((4-(6-(4-chlorophenyl)-2-(1-methyl-1H-pyrazol-4-yl)pyrimidin-4-yl)piperazin-1-yl)sulfonyl)ethanol]: the IC50 was 10 to 100 nM.

`O[C@H]1CCN(c2cc(-c3ccc(C(F)(F)F)cc3)nc(-c3cnsc3)n2)C1` [Example 350, (S)-1-(2-(isothiazol-4-yl)-6-(4-(trifluoromethyl)phenyl)pyrimidin-4-yl)pyrrolidin-3-ol] yielded an IC50 of under 10 nM.

Compound `CS(=O)(=O)C1(CO)CCN(c2cc(-c3ccc(C(F)(F)F)cc3)nc(-c3cccnc3)n2)CC1` [Example 351, (4-(methylsulfonyl)-1-(2-(pyridin-3-yl)-6-(4-(trifluoromethyl)phenyl)pyrimidin-4-yl)piperidin-4-yl)methanol] displayed an IC50 of over 1000 nM.

`Cn1cc(-c2nc(-c3ccc(C(F)(F)F)cc3)cc(N3CCN(S(=O)(=O)CCO)CC3)n2)cn1` [Example 353, 2-((4-(2-(1-methyl-1H-pyrazol-4-yl)-6-(4-(trifluoromethyl)phenyl)pyrimidin-4-yl)piperazin-1-yl)sulfonyl)ethanol] displayed a concentration for half-maximal inhibition (IC50) of 10 to 100 nM.

On to `CN(C)C1CN(c2cc(-c3ccc(Cl)cc3)nc(-c3cccnc3)n2)CCC1O` (stereo not shown) [Example 354, 1-(6-(4-chlorophenyl)-2-(pyridin-3-yl)pyrimidin-4-yl)-3-(dimethylamino)piperidin-4-ol], for which the IC50 was over 1000 nM.

For `CN(C)C1CC(O)CN(c2cc(-c3ccc(Cl)cc3)nc(-c3cccnc3)n2)C1` (stereo not shown) [Example 355, 1-(6-(4-chlorophenyl)-2-(pyridin-3-yl)pyrimidin-4-yl)-5-(dimethylamino)piperidin-3-ol], the IC50 was 100 to 1000 nM.

`Cn1cc(-c2nc(-c3ccc(Cl)cc3)cc(N3CCC(CO)(S(C)(=O)=O)CC3)n2)cn1` [Example 356, (1-(6-(4-chlorophenyl)-2-(1-methyl-1H-pyrazol-4-yl)pyrimidin-4-yl)-4-(methylsulfonyl)piperidin-4-yl)methanol] registered an IC50 of 10 to 100 nM.

With `Cn1cc(-c2nc(-c3ccc(C(F)(F)F)cc3)cc(N3CCC(CO)(S(C)(=O)=O)CC3)n2)cn1` [Example 357, (1-(2-(1-methyl-1H-pyrazol-4-yl)-6-(4-(trifluoromethyl)phenyl)pyrimidin-4-yl)-4-(methylsulfonyl)piperidin-4-yl)methanol], the IC50 was under 10 nM.

For `CN(C)C1CN(c2cc(-c3ccc(Cl)cc3)nc(-c3cccnc3)n2)CCC1CO` (stereo not shown) [Example 358, (1-(6-(4-chlorophenyl)-2-(pyridin-3-yl)pyrimidin-4-yl)-3-(dimethylamino)piperidin-4-yl)methanol], the IC50 was 100 to 1000 nM.

In turn, `CC1CN(S(=O)(=O)CCO)CCN1c1cc(-c2ccc(Cl)cc2)nc(-c2cccnc2)n1` (stereo not shown) [Example 359, 2-((4-(6-(4-chlorophenyl)-2-(pyridin-3-yl)pyrimidin-4-yl)-3-methylpiperazin-1-yl)sulfonyl)ethan-1-ol] registered an IC50 of 10 to 100 nM.

Take `OCCNC1CCN(c2cc(-c3ccc(Cl)cc3)nc(-c3cccnc3)n2)CC1` [Example 360, 2-((1-(6-(4-chlorophenyl)-2-(pyridin-3-yl)pyrimidin-4-yl)piperidin-4-yl)amino)ethanol]: the IC50 was over 1000 nM.

Compound `O=S(=O)(CCCO)N1CCN(c2cc(-c3ccc(Cl)cc3)nc(-c3cccnc3)n2)CC1` [Example 362, 3-((4-(6-(4-chlorophenyl)-2-(pyridin-3-yl)pyrimidin-4-yl)piperazin-1-yl)sulfonyl)propan-1-ol] returned an IC50 of under 10 nM.

`O=C(CC(O)CO)N1CCN(c2cc(-c3ccc(Cl)cc3)nc(-c3cccnc3)n2)CC1` (stereo not shown) [Example 363, 1-(4-(6-(4-chlorophenyl)-2-(pyridin-3-yl)pyrimidin-4-yl)piperazin-1-yl)-3,4-dihydroxybutan-1-one] yielded an IC50 of under 10 nM.

Compound `CC(O)C(O)C(=O)N1CCN(c2cc(-c3ccc(Cl)cc3)nc(-c3cccnc3)n2)CC1` (stereo not shown) [Example 364, 1-(4-(6-(4-chlorophenyl)-2-(pyridin-3-yl)pyrimidin-4-yl)piperazin-1-yl)-2,3-dihydroxybutan-1-one] registered an IC50 of under 10 nM.

As to `CC1CN(c2cc(-c3ccc(Cl)cc3)nc(-c3cccnc3)n2)CC(=O)N1` (stereo not shown) [Example 365, 4-(6-(4-chlorophenyl)-2-(pyridin-3-yl)pyrimidin-4-yl)-6-methylpiperazin-2-one], the IC50 was in the range of 100 to 1000 nM.

`O=C1COCCN1c1ccc(-c2cc(N3CC[C@H](O)C3)nc(-c3cccnc3)n2)cc1` [Example 367, (S)-4-(4-(6-(3-hydroxypyrrolidin-1-yl)-2-(pyridin-3-yl)pyrimidin-4-yl)phenyl)morpholin-3-one]: the 50% inhibitory concentration (IC50) is over 1000 nM.

As to `O=S(=O)(CCO)N1CCN(c2cc(-c3ccc(Cl)cc3)nc(-c3cnsc3)n2)CC1` [Example 368, 2-((4-(6-(4-chlorophenyl)-2-(isothiazol-4-yl)pyrimidin-4-yl)piperazin-1-yl)sulfonyl)ethanol], the IC50 was 10 to 100 nM.

In turn, `O=S(=O)(CC(O)CO)N1CCN(c2cc(-c3ccc(Cl)cc3)nc(-c3cccnc3)n2)CC1` (stereo not shown) [Example 369, 3-((4-(6-(4-chlorophenyl)-2-(pyridin-3-yl)pyrimidin-4-yl)piperazin-1-yl)sulfonyl)propane-1,2-diol] had an IC50 of 10 to 100 nM.

In turn, `O=S(=O)(CCO)N1CCN(c2cc(-c3ccc(C(F)(F)F)cc3)nc(-c3cnsc3)n2)CC1` [Example 370, 2-((4-(2-(isothiazol-4-yl)-6-(4-(trifluoromethyl)phenyl)pyrimidin-4-yl)piperazin-1-yl)sulfonyl)ethanol] returned an IC50 of 10 to 100 nM.

`OCC[C@H]1CN(c2cc(-c3ccc(Cl)cc3)nc(-c3cccnc3)n2)CCN1` [Example 371, (S)-2-(4-(6-(4-chlorophenyl)-2-(pyridin-3-yl)pyrimidin-4-yl)piperazin-2-yl)ethanol] registered an IC50 of 100 to 1000 nM.

Compound `O=C1COCCN1c1ccc(-c2cc(N3CC[C@H](O)C3)nc(-c3cccnc3)n2)cn1` [Example 372, (S)-4-(5-(6-(3-hydroxypyrrolidin-1-yl)-2-(pyridin-3-yl)pyrimidin-4-yl)pyridin-2-yl)morpholin-3-one] returned an IC50 of 100 to 1000 nM.
